In US9908890B2, “Selective inhibitors of constitutive androstane receptor” (ST. JUDE CHILDREN'S RESEARCH HOSPITAL, priority 2014, dated 2018):
“And” between values parts separate entries of the source, which are not always exact repeats. Equal entries are not always repeated. Where two headings read alike, the source gives them in different places.

Target: T1, GST-hCAR-LBD (Homo sapiens, UniProt Q14994)
T1 construct: purchased Life Technologies (Carlsbad, Calif.) or Invitrogen (Carlsbad, Calif.)
T1 sequence (Q14994 109-352 limits assumed): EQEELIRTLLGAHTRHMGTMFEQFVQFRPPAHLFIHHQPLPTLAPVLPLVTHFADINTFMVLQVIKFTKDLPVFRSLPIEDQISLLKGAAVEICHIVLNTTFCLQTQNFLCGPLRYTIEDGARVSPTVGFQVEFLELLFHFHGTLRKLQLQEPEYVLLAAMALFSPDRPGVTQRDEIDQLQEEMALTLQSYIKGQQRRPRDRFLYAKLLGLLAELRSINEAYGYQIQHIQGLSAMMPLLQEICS
Test: CoAct binding inverse agonist assay (LanthaScreen TR-FRET, fluorescent PGC-1α coactivator recruitment/repression)
Assay type: biochemical
Conditions: for fold increase of CAR inverse agonistic activity (potency) over lead chemical 1 (CINPA1) / fold increase of IC50 (decrease of activity) relative to lead chemical 1 (CINPA1): relative to chemical 1
Procedure: The effect of putative CAR ligands on the recruitment or repression of PGC-1α binding to hCAR was evaluated by using a LanthaScreen TR-FRET assay according to the manufacturer's instructions. […] The final DMSO concentration was 0.7% in all assay wells. […] The % Inhibition values were then plotted for individual chemicals. When applicable, the graphic software GraphPad Prism 5.04 (GraphPad Software, La Jolla, Calif., USA) was used to fit the data into a one-site competitive-binding equation to derive IC50 values. […] The assay plates were then briefly spun down and incubated for 1 hour at room temperature (25° C.). […] The final DMSO concentration was 0.7% in all assay wells. […] The % Inhibition values were then plotted for individual chemicals. When applicable, the graphic software GraphPad Prism 5.04 (GraphPad Software, La Jolla, Calif., USA) was used to fit the data into a one-site competitive-binding equation to derive IC50 values.

[1] = read-out: IC50 (CAR inverse agonistic activity)
[2] = 70 μM compound, 42 μM clotrimazole = 100%, DMSO = 0%

| SMILES | IC50 [1] | IC50 (Table 4, read-out: IC50) | other results |
| --- | --- | --- | --- |
| CC(C)OC(=O)Nc1ccc2c(c1)N(C(=O)COC1CCC1)c1ccccc1CC2 [Compound 34, isopropyl (5-(2-cyclobutoxyacetyl)-10,11-dihydro-5H-dibenzo[b,f]azepin-3-yl)carbamate] | 0.038 µM | – | – |
| CC(C)OC(=O)Nc1ccc2c(c1)N(C(=O)COC1CCCC1)c1ccccc1CC2 [Compound 35, isopropyl (5-(2-(cyclopentyloxy)acetyl)-10,11-dihydro-5H-dibenzo[b,f]azepin-3-yl)carbamate] | 0.02 µM | – | – |
| CC(C)OC(=O)Nc1ccc2c(c1)N(C(=O)COC1CCCCC1)c1ccccc1CC2 [Compound 36, isopropyl (5-(2-(cyclohexyloxy)acetyl)-10,11-dihydro-5H-dibenzo[b,f]azepin-3-yl)carbamate] | 0.024 µM | – | – |
| CCCN(CCC)CC(=O)N1c2ccccc2CCc2ccc(NC(=O)OC(C)(C)C)cc21 [Compound 37, tert-butyl (5-(dipropylglycyl)-10,11-dihydro-5H-dibenzo[b,f]azepin-3-yl)carbamate] | 0.15 µM | 0.153 µM | – |
| CC(C)(C)OC(=O)Nc1ccc2c(c1)N(C(=O)CN1CCCCC1)c1ccccc1CC2 [Compound 38, tert-butyl (5-(2-(piperidin-1-yl)acetyl)-10,11-dihydro-5H-dibenzo[b,f]azepin-3-yl)carbamate] | 0.22 µM | – | – |
| CC(C)OCC(=O)N1c2ccccc2CCc2ccc(NC(=O)OC(C)(C)C)cc21 [Compound 39, tert-butyl (5-(2-isopropoxyacetyl)-10,11-dihydro-5H-dibenzo[b,f]azepin-3-yl)carbamate] | 0.12 µM | – | – |
| O=C(Nc1ccc2c(c1)N(C(=O)Cn1cccc1)c1ccccc1CC2)OC1CC1 [Compound 41, cyclopropyl (5-(2-(1H-pyrrol-1-yl)acetyl)-10,11-dihydro-5H-dibenzo[b,f]azepin-3-yl)carbamate] | 0.022 µM | – | – |
| O=C(Nc1ccc2c(c1)N(C(=O)Cn1cccc1)c1ccccc1CC2)OC1CCC1 [Compound 42, cyclobutyl (5-(2-(1H-pyrrol-1-yl)acetyl)-10,11-dihydro-5H-dibenzo[b,f]azepin-3-yl)carbamate] | 0.02 µM | – | – |
| O=C(Nc1ccc2c(c1)N(C(=O)Cn1cccc1)c1ccccc1CC2)OC1CCCC1 [Compound 43, cyclopentyl (5-(2-(1H-pyrrol-1-yl)acetyl)-10,11-dihydro-5H-dibenzo[b,f]azepin-3-yl)carbamate] | 0.014 µM | – | – |
| O=C(Nc1ccc2c(c1)N(C(=O)Cn1cccc1)c1ccccc1CC2)OC1CCCCC1 [Compound 44, cyclohexyl (5-(2-(1H-pyrrol-1-yl)acetyl)-10,11-dihydro-5H-dibenzo[b,f]azepin-3-yl)carbamate] | 0.012 µM | – | fold increase of CAR inverse agonistic activity (potency) over lead chemical 1 (CINPA1): approximately 59 fold |
| O=C(Nc1ccc2c(c1)N(C(=O)Cn1cccc1)c1ccccc1CC2)N1CCCC1 [Compound 45] | – | 0.28 µM | – |
| O=C(Cn1cccc1)N1c2ccccc2CCc2ccc(NC(=O)n3cccc3)cc21 [Compound 46] | – | 0.081 µM | – |
| O=C(Nc1ccc2c(c1)N(C(=O)Cn1cccc1)c1ccccc1CC2)N1CCCCC1 [Compound 47] | – | 0.099 µM | – |
| O=C(Nc1ccc2c(c1)N(C(=O)Cn1cccc1)c1ccccc1CC2)N1CCOCC1 [Compound 48] | – | 0.37 µM | – |
| CC(C)OC(=O)Nc1ccc2c(c1)N(C(=O)COC1COC1)c1ccccc1CC2 [Compound 49] | – | 0.66 µM | – |
| O=C(Nc1ccc2c(c1)N(C(=O)COC1CCCC1)c1ccccc1CC2)OC1CCCCC1 [Compound 51] | – | 0.065 µM | – |
| CCN(CC)C(=O)N1c2ccccc2CCc2ccc(NC(=O)OC(C)C)cc21 [Compound 54] | – | 0.019 µM | – |
| CC(C)OC(=O)Nc1ccc2c(c1)N(C(=O)n1cccc1)c1ccccc1CC2 [Compound 55] | – | 0.018 µM | – |
| CC(C)OC(=O)Nc1ccc2c(c1)N(C(=O)OC1CCCC1)c1ccccc1CC2 [Compound 56] | – | 0.016 µM | – |
| CC(C)OC(=O)Nc1ccc2c(c1)N(C(=O)OCC(C)(C)C)c1ccccc1CC2 [Compound 57] | – | 0.025 µM | – |
| O=C(Nc1ccc2c(c1)N(C(=O)n1cccc1)c1ccccc1CC2)OC1CCCCC1 [Compound 58] | – | 0.014 µM | – |
| O=C(Nc1ccc2c(c1)N(C(=O)N1CCCCC1)c1ccccc1CC2)OC1CCCCC1 [Compound 59] | – | 0.15 µM | – |
| O=C(Nc1ccc2c(c1)N(C(=O)OC1CCCC1)c1ccccc1CC2)OC1CCCCC1 [Compound 60] | – | 0.017 µM | – |
| CC(C)(C)COC(=O)N1c2ccccc2CCc2ccc(NC(=O)OC3CCCCC3)cc21 [Compound 61] | – | 0.041 µM | – |
| CC(C)OC(=O)Nc1ccc2c(c1)N(C(=O)Cc1cccs1)c1ccccc1CC2 [Compound 62] | – | 0.021 µM | – |
| CC(C)OC(=O)Nc1ccc2c(c1)N(C(=O)Cc1ccco1)c1ccccc1CC2 [Compound 63] | – | 0.037 µM | – |
| CCOC(=O)Nc1ccc2c(c1)N(C(=O)CN(CC)CC)c1ccccc1CC2 [Compound 70] | – | 0.62 µM | % Inhibition (70 μM) [2]: 104.8% |
| CCNCC(=O)N1c2ccccc2CCc2ccc(N)cc21 [Compound 72] | – | – | inhibition at 70 µM (70 μM compound, 42 μM clotrimazole = 100%, DMSO = 0%, read-out: % Inhibition (70 μM)): 27% |

More lines, main results first:

| IC50 [1] | IC50 (Table 4, read-out: IC50) | SMILES | other results |
| --- | --- | --- | --- |
| – | 0.012 µM | CC(C)OC(=O)Nc1ccc2c(c1)N(C(=O)c1cccs1)c1ccccc1CC2 [Compound 64] | – |
| – | 0.075 µM | CC(C)OC(=O)Nc1ccc2c(c1)N(C(=O)c1ccco1)c1ccccc1CC2 [Compound 65] | – |
| – | 0.026 µM | O=C(Nc1ccc2c(c1)N(C(=O)Cc1cccs1)c1ccccc1CC2)OC1CCCCC1 [Compound 66] | – |
| – | 0.031 µM | O=C(Nc1ccc2c(c1)N(C(=O)Cc1ccco1)c1ccccc1CC2)OC1CCCCC1 [Compound 67] | – |
| – | 0.019 µM | O=C(Nc1ccc2c(c1)N(C(=O)c1cccs1)c1ccccc1CC2)OC1CCCCC1 [Compound 68] | – |
| – | 0.05 µM | O=C(Nc1ccc2c(c1)N(C(=O)c1ccco1)c1ccccc1CC2)OC1CCCCC1 [Compound 69] | – |
| – | 28 µM | CCNCC(=O)N1c2ccccc2CCc2ccc(NC(=O)OCC)cc21 [Compound 71] | % Inhibition (70 μM) [2]: 77.6% |
| 0.24 µM and 0.235 µM | – | CCOC(=O)Nc1ccc2c(c1)N(C(=O)CN1CCOCC1)c1ccccc1CC2 [compound 80] | fold increase of CAR inverse agonistic activity (potency) over lead chemical 1 (CINPA1): about 3 fold |
| 38.8 µM | – | CCOC(=O)Nc1ccc2c(c1)N(C(=O)CN1CCN(C)CC1)c1ccccc1CC2 [compound 81] | fold increase of IC50 (decrease of activity) relative to lead chemical 1 (CINPA1): 56 fold |
| 3.63 µM | – | CCOC(=O)Nc1ccc2c(c1)N(C(=O)CNC(C)(C)C)c1ccccc1CC2 [compound 83] | fold increase of IC50 (decrease of activity) relative to lead chemical 1 (CINPA1): 5 fold |
| 0.32 µM | – | CCOC(=O)Nc1ccc2c(c1)N(C(=O)CCN1CCOCC1)c1ccccc1CC2 [compound 85] | – |
| 5.01 µM | – | CCOC(=O)Nc1ccc2c(c1)N(C(=O)CCN(C)C)c1ccccc1CC2 [compound 86] | – |
| 0.29 µM | – | COC(=O)Nc1ccc2c(c1)N(C(=O)CCN1CCOCC1)c1ccccc1CC2 [compound 87] | – |
| > 70 µM | – | CC(C)OC(=O)Nc1ccc2c(c1)N(C(=O)CCN1CCN(CCO)CC1)c1ccccc1CC2 [compound 88] | IC50 (Table 6, CINPA1 and commercially available analogs, read-out: IC50): > 70 µM |
| 1.79 µM | – | CC(C)OC(=O)Nc1ccc2c(c1)N(C(=O)CCN(C)C)c1ccccc1CC2 [compound 89] | fold increase of potency compared to chemical 86 (relative to chemical 86): about 3 fold |
